Data: the supplement of paper PMC10307832

Tests used:
Test in all cases: relative viability (nuclei count vs DMSO), 5 days (fraction); higher = more cells survive
Trametinib + AZD7762 = compound: CC(=O)Nc1cccc(-n2c(=O)n(C3CC3)c(=O)c3c(Nc4ccc(I)cc4F)n(C)c(=O)c(C)c32)c1 [Trametinib] + NC(=O)Nc1cc(-c2cccc(F)c2)sc1C(=O)N[C@H]1CCCNC1 [AZD7762] (partner 0.2 µM)
How it was run: (§1)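 Lung cancer cell lines in 1536-well plates got either a single drug or a fixed anchor-drug dose together with five library-drug doses (not always all listed) in √10 steps, by pin tool, on the day after seeding. Nuclei were counted after 5 days, and relative viability is the treated-to-vehicle ratio of nuclei counts. Values are medians of duplicate plates.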

[1] = compound: CN1C=C(C2=CC=CC=C21)/C=C\3/C4=C(C=CC=N4)NC3=O + O=C(CCCCCCC(=O)Nc1ccccc1)NO [Vorinostat] (partner 1 µM)
How it was run: as §1

Trametinib + Foretinib = compound: CC(=O)Nc1cccc(-n2c(=O)n(C3CC3)c(=O)c3c(Nc4ccc(I)cc4F)n(C)c(=O)c(C)c32)c1 [Trametinib] + COc1cc2c(Oc3ccc(NC(=O)C4(C(=O)Nc5ccc(F)cc5)CC4)cc3F)ccnc2cc1OCCCN1CCOCC1 [Foretinib] (partner 0.25 µM)
How it was run: as §1

[2] = compound: CN1C=C(C2=CC=CC=C21)/C=C\3/C4=C(C=CC=N4)NC3=O + Cc1nc(Nc2ncc(C(=O)Nc3c(C)cccc3Cl)s2)cc(N2CCN(CCO)CC2)n1 [Dasatinib] (partner 0.075 µM)
How it was run: as §1

Cell Line	relative viability (Trametinib + AZD7762; first compound 0.0025 µM)	relative viability (Trametinib + AZD7762; first compound 0.007906 µM)	relative viability (Trametinib + AZD7762; first compound 0.025 µM)	relative viability (Trametinib + AZD7762; first compound 0.07906 µM)	relative viability (Trametinib + AZD7762; first compound 0.25 µM)	relative viability ([1]; first compound 0.02 µM)	relative viability ([1]; first compound 0.06325 µM)	relative viability ([1]; first compound 0.2 µM)	relative viability ([1]; first compound 0.6325 µM)	relative viability ([1]; first compound 2 µM)	relative viability (Trametinib + Foretinib; first compound 0.0025 µM)	relative viability (Trametinib + Foretinib; first compound 0.007906 µM)	relative viability (Trametinib + Foretinib; first compound 0.025 µM)	relative viability (Trametinib + Foretinib; first compound 0.07906 µM)	relative viability (Trametinib + Foretinib; first compound 0.25 µM)	relative viability ([2]; first compound 0.02 µM)	relative viability ([2]; first compound 0.06325 µM)	relative viability ([2]; first compound 0.2 µM)	relative viability ([2]; first compound 0.6325 µM)	relative viability ([2]; first compound 2 µM)
PC-14	0.354	0.274	0.224	0.193	0.203	0.759	0.583	0.728	0.674	0.744	0.911	0.823	0.809	0.885	0.693	0.227	0.223	0.194	0.205	0.186
A-427	0.662	0.573	0.525	0.373	0.371	0.89	0.845	–	0.901	0.813	1	0.747	0.619	0.517	0.448	0.696	0.664	–	0.644	0.86
NCI-H596	0.942	1.05	0.921	0.756	0.653	0.642	0.653	0.484	0.589	0.595	0.793	0.596	0.709	0.69	0.396	0.481	0.582	0.469	0.628	0.48
RERF-LC-KJ	0.853	0.909	0.674	0.807	0.814	0.787	0.668	0.72	0.604	0.598	0.948	0.851	0.699	0.827	0.778	0.898	0.878	0.737	0.68	0.679
NCI-H647	0.543	0.3	0.262	0.174	0.165	0.498	0.529	0.676	0.524	0.531	1.35	1.08	0.963	0.911	0.4	0.208	0.176	0.105	0.143	0.167
NCI-H1734	0.476	0.451	–	0.509	0.369	0.73	0.712	–	0.796	0.747	0.968	0.781	0.582	0.607	0.446	0.453	0.408	–	0.455	0.517
NCI-H1395	0.399	0.377	0.41	0.361	0.367	0.679	0.725	0.564	0.662	0.604	0.993	0.914	0.852	0.919	0.708	0.399	0.425	0.371	0.422	0.392
EMC-BAC-2	1.19	1.14	0.994	0.932	0.757	0.849	0.441	0.39	0.261	0.214	0.917	0.885	0.782	0.907	0.68	0.356	0.323	0.32	0.332	0.407
NCI-H1355	0.747	0.706	0.539	0.599	0.591	0.581	0.581	0.653	0.513	0.534	0.993	0.725	0.519	0.606	0.488	0.671	0.586	0.571	0.399	0.502
NCI-H1944	0.511	0.39	0.344	0.366	0.311	0.471	0.5	–	0.568	0.528	0.811	0.634	0.572	0.461	0.341	0.214	0.215	–	0.194	0.217
ABC-1	0.801	0.756	0.562	0.555	0.915	1.29	0.899	0.926	1.05	0.834	1.04	0.834	0.715	0.891	0.685	0.484	0.424	0.53	0.562	0.56
HOP-62	0.737	0.461	0.251	0.243	0.211	0.565	0.543	–	0.576	0.547	1.04	0.948	0.623	0.341	0.252	0.683	0.709	0.592	0.599	0.648
